Measured values from ChEMBL document CHEMBL1136386, “Solid-phase synthesis of endothelin receptor antagonists” (Bioorg Med Chem Lett, 2003).
pKi: −log10 of the molar value.

Columns and labels:
[1] = target: T1, Endothelin-1 receptor (Homo sapiens, UniProt P25101); experiment: Antagonist activity against human ETA receptor using CHO cells; format: functional, cell-based
T1 sequence (P25101 whole entry): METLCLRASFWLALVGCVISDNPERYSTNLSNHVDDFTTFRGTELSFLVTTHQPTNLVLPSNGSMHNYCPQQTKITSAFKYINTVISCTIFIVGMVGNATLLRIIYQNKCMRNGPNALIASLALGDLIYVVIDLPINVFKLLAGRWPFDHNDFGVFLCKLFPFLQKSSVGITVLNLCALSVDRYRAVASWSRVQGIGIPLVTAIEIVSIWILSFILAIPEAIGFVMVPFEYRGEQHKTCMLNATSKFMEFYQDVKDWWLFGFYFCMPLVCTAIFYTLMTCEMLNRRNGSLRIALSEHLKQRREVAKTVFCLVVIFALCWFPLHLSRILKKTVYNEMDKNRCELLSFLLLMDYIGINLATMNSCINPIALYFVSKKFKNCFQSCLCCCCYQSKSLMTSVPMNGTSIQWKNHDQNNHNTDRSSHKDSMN

[2] = target: T2, Endothelin receptor type B (Homo sapiens, UniProt P24530); experiment: Antagonist activity against human Endothelin B receptor expressed in CHO cells; format: functional, cell-based
T2 sequence (P24530 whole entry): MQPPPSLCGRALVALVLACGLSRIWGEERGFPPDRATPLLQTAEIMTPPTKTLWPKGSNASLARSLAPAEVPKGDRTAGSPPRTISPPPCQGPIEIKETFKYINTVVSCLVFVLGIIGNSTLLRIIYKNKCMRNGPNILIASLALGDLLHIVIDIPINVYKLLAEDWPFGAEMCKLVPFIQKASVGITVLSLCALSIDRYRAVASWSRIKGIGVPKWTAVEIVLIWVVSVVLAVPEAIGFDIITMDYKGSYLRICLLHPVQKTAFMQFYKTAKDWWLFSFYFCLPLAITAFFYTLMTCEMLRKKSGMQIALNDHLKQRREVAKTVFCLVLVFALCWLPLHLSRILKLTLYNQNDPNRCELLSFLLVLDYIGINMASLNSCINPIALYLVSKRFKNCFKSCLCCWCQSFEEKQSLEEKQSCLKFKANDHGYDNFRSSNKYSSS

CCOc1ccc(-c2cc(C)nc(OC(C(=O)O)C(C)(c3ccccc3)c3ccccc3)n2)cc1 (configuration not stated)
pKi [1]: 8.70
pKi [2]: 6.46
